Results reported in ChEMBL document CHEMBL3885861, “Open TG-GATES”.

Species on record: Rattus norvegicus
Assay: Open TG-GATES - Regimen: Single
Format: toxicity, organism-based, Sprague-Dawley
Design: regimen Single, gender Male, age 6 weeks
Conditions: in vivo, po, 1000 mg/kg, route gavage, dose level High; for APTT / Bas / Eos / Fbg / Hb / Ht / Lym / MCH / MCHC / MCV / Mono / Neu / PT / Plat / RBC / Ret / WBC: tissue Blood; for KIDNEY_L / KIDNEY_R / KIDNEY_TOTAL: tissue Kidney; for LIVER: tissue Liver; for A/G / ALP / ALT / AST / BUN / CRE / Ca / Cl / DBIL / GLC / IP / K / LDH / Na / PL / RALB / TBIL / TC / TG / TP / gamma-GTP: tissue Plasma

CNC(=C[N+](=O)[O-])NCCSCc1ccc(CN(C)C)o1 [RANITIDINE]
TERMINAL_BW (3 h): 218.6 g | APTT (3 h): 21.3 s | Bas (3 h): 0% | Eos (3 h): 1% | Fbg (3 h): 209 mg/dL | Hb (3 h): 12.7 g/dL | Ht (3 h): 36.7% | Lym (3 h): 76.2% | MCH (3 h): 21.7 pg | MCHC (3 h): 34.7% | MCV (3 h): 62.7 fL | Mono (3 h): 2.4% | Neu (3 h): 17.4% | PT (3 h): 12.5 s | Plat (3 h): 116.7 x10_4/uL | RBC (3 h): 585.2 x10_4/ul | Ret (3 h): 7.1% | WBC (3 h): 84.3 x10_2/uL | KIDNEY_L (3 h): 1 g | KIDNEY_R (3 h): 1 g | KIDNEY_TOTAL (3 h): 2.1 g | LIVER (3 h): 10.5 g | A/G (3 h): 1.7 | ALP (3 h): 944 IU/L | ALT (3 h): 35.8 IU/L | AST (3 h): 67.2 IU/L | BUN (3 h): 9.4 mg/dL | CRE (3 h): 0.4 mg/dL | Ca (3 h): 10.5 mg/dL | Cl (3 h): 104.4 meq/L | DBIL (3 h): 0.064 mg/dL | GLC (3 h): 181.2 mg/dL | IP (3 h): 8.2 mg/dL | K (3 h): 3.7 meq/L | LDH (3 h): 148 IU/L | Na (3 h): 141.4 meq/L | PL (3 h): 133.6 mg/dL | RALB (3 h): 3.3 g/dL | TBIL (3 h): 0.1 mg/dL | TC (3 h): 68 mg/dL | TG (3 h): 44.8 mg/dL | TP (3 h): 5.3 g/dL | gamma-GTP (3 h): 1.2 IU/L | TERMINAL_BW (6 h): 213.4 g | APTT (6 h): 18.8 s | Bas (6 h): 0% | Eos (6 h): 1% | Fbg (6 h): 232.8 mg/dL | Hb (6 h): 13.4 g/dL | Ht (6 h): 38% | Lym (6 h): 72.8% | MCH (6 h): 21.7 pg | MCHC (6 h): 35.1% | MCV (6 h): 62 fL | Mono (6 h): 3% | Neu (6 h): 18.4% | PT (6 h): 12.7 s | Plat (6 h): 106.2 x10_4/uL | RBC (6 h): 613.8 x10_4/ul | Ret (6 h): 7.1% | WBC (6 h): 88.7 x10_2/uL | KIDNEY_L (6 h): 0.9 g | KIDNEY_R (6 h): 0.9 g | KIDNEY_TOTAL (6 h): 1.9 g | LIVER (6 h): 9.8 g | A/G (6 h): 1.7 | ALP (6 h): 906.4 IU/L | ALT (6 h): 37.2 IU/L | AST (6 h): 63.8 IU/L | BUN (6 h): 9.4 mg/dL | CRE (6 h): 0.4 mg/dL | Ca (6 h): 10.6 mg/dL | Cl (6 h): 104 meq/L | DBIL (6 h): 0.066 mg/dL | GLC (6 h): 193.4 mg/dL | IP (6 h): 8.3 mg/dL | K (6 h): 3.6 meq/L | LDH (6 h): 126.4 IU/L | Na (6 h): 141 meq/L | PL (6 h): 151.4 mg/dL | RALB (6 h): 3.4 g/dL | TBIL (6 h): 0.1 mg/dL | TC (6 h): 80.8 mg/dL | TG (6 h): 47.8 mg/dL | TP (6 h): 5.4 g/dL | gamma-GTP (6 h): 1.4 IU/L | TERMINAL_BW (9 h): 210.2 g | APTT (9 h): 20.1 s | Bas (9 h): 0% | Eos (9 h): 1% | Fbg (9 h): 242.2 mg/dL | Hb (9 h): 13.2 g/dL | Ht (9 h): 38% | Lym (9 h): 68.6% | MCH (9 h): 21.8 pg | MCHC (9 h): 34.8% | MCV (9 h): 62.5 fL | Mono (9 h): 2.4% | Neu (9 h): 24.2% | PT (9 h): 12.6 s | Plat (9 h): 111.9 x10_4/uL | RBC (9 h): 607.2 x10_4/ul | Ret (9 h): 7.3% | WBC (9 h): 74.1 x10_2/uL | KIDNEY_L (9 h): 1 g | KIDNEY_R (9 h): 1 g | KIDNEY_TOTAL (9 h): 1.9 g | LIVER (9 h): 9.2 g | A/G (9 h): 1.6 | ALP (9 h): 955.2 IU/L | ALT (9 h): 36 IU/L | AST (9 h): 65.8 IU/L | BUN (9 h): 8.8 mg/dL | CRE (9 h): 0.3 mg/dL | Ca (9 h): 10.6 mg/dL | Cl (9 h): 103.8 meq/L | DBIL (9 h): 0.066 mg/dL | GLC (9 h): 197 mg/dL | IP (9 h): 8.6 mg/dL | K (9 h): 3.6 meq/L | LDH (9 h): 126 IU/L | Na (9 h): 140.8 meq/L | PL (9 h): 152 mg/dL | RALB (9 h): 3.4 g/dL | TBIL (9 h): 0.1 mg/dL | TC (9 h): 84.6 mg/dL | TG (9 h): 30.2 mg/dL | TP (9 h): 5.5 g/dL | gamma-GTP (9 h): 1.2 IU/L | TERMINAL_BW (24 h): 228.9 g | APTT (24 h): 20.1 s | Bas (24 h): 0.2% | Eos (24 h): 1% | Fbg (24 h): 235 mg/dL | Hb (24 h): 13.9 g/dL | Ht (24 h): 39.1% | Lym (24 h): 79% | MCH (24 h): 22.4 pg | MCHC (24 h): 35.5% | MCV (24 h): 63 fL | Mono (24 h): 3.2% | Neu (24 h): 15% | PT (24 h): 11.7 s | Plat (24 h): 122.4 x10_4/uL | RBC (24 h): 621.4 x10_4/ul | Ret (24 h): 5.9% | WBC (24 h): 75.4 x10_2/uL | KIDNEY_L (24 h): 1 g | KIDNEY_R (24 h): 1 g | KIDNEY_TOTAL (24 h): 2 g | LIVER (24 h): 10.7 g | A/G (24 h): 1.6 | ALP (24 h): 881.6 IU/L | ALT (24 h): 33.2 IU/L | AST (24 h): 60.4 IU/L | BUN (24 h): 15.4 mg/dL | CRE (24 h): 0.4 mg/dL | Ca (24 h): 10.8 mg/dL | Cl (24 h): 101.6 meq/L | DBIL (24 h): 0.078 mg/dL | GLC (24 h): 204.2 mg/dL | IP (24 h): 7.9 mg/dL | K (24 h): 3.7 meq/L | LDH (24 h): 127.8 IU/L | Na (24 h): 140.4 meq/L | PL (24 h): 155.6 mg/dL | RALB (24 h): 3.4 g/dL | TBIL (24 h): 0.1 mg/dL | TC (24 h): 84.4 mg/dL | TG (24 h): 67.8 mg/dL | TP (24 h): 5.6 g/dL | gamma-GTP (24 h): 0.8 IU/L
